This note sets out measurements from ChEMBL document CHEMBL1201862, “PubChem BioAssay data set” (2004).

Active and inactive are the calls of the source. Bounds are passed on as bounds.

Test [1] deals with HEK293. In words: inhibitors of LMP1-driven NF-kB reporter, dose response, cell-based, HEK293, luciferase, cherry-pick (AID 588343). Particulars: Homo sapiens. The format is functional.
In test [2] the target is Peroxisome proliferator-activated receptor gamma/Nuclear receptor coactivator 1 (Homo sapiens, UniProt P37231). In words: TR-FRET dose response biochemical High Throughput Screening assay for agonists of the steroid receptor coactivator 1 (SRC-1) recruitment by the peroxisome proliferator-activated receptor gamma (PPAR gamma): non-selective agonists. [Related pubchem assays (depositor defined):AID1300, AID1808, AID504735, AID631]. Format: protein assay.

Test [3] addresses Peroxisome proliferator-activated receptor gamma/Nuclear receptor coactivator 2 (Homo sapiens, UniProt P37231). In words: TR-FRET dose response biochemical High Throughput Screening assay for agonists of the steroid receptor coactivator 2 (SRC-2) recruitment by the peroxisome proliferator-activated receptor gamma (PPAR gamma): non-selective agonists. [Related pubchem assays: 1297, 1032 ]. Format: functional. In general terms: TR-FRET usually uses a lanthanide donor and a delayed reading to cut background.

In test [4] the target is Peroxisome proliferator-activated receptor gamma/Nuclear receptor coactivator 3 (Homo sapiens, UniProt P37231). In words: TR-FRET dose response biochemical High Throughput Screening assay for agonists of the steroid receptor coactivator 3 (SRC-3) recruitment by the peroxisome proliferator-activated receptor gamma (PPAR gamma): non-selective agonists. [Related pubchem assays: 1301 (Confirmation screen.), 1048 (Primary screen.)]. Format: functional.

Test [5] deals with P388/ADR. In words: cells. Particulars: Mus musculus. Format: functional.
In test [6] the test system is SN12K1. In words: cells. Format: functional. Particulars: Homo sapiens.
The test system of test [7] is P388. In words: cells. Format: functional. To be noted: Mus musculus.
Test [8] in a line: Luminescence Cell-Based Dose Retest to Confirm Inhibitors of Cancer Stem Cells. [Related pubchem assays (depositor defined):AID2717, AID2721]. To be noted: Homo sapiens. Format: functional.
Test [9] relates to BJ. Nature of the test: cells. Format: functional, cell-based. To be noted: Homo sapiens.
In test [10] the test system is BJ. In words: cytotoxicity toward Ras-transformed BJeLR fibroblasts, dose response, cell-based, alamar blue fluorescence, cherrypicked samples (AID 2631).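 Further: confirmatory dose-response assay in RAS-dependent BJ fibroblasts engineered with TERT, LT and ST, with cytotoxicity read by fluorescence.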 Format: functional. To be noted: Homo sapiens.
Test [11] can be described thus: cytotoxicity toward DRD oncogenic fibroblasts, dose response, cell-based, non-viral oncogenic, luminescence (AID 1934). Particulars: Homo sapiens. The format is functional.
In test [12] the test system is BJ. Nature of the test: cytotoxicity toward BJ-TERT fibroblasts, dose response, cell-based, RAS-independent, luminescence (AID 1933). Format: functional. Particulars: Homo sapiens.
Test [13] relates to BJ. In words: cytotoxicity toward BJ-TERT-LT-ST fibroblasts, dose response, cell-based, RAS-independent, luminescence (AID 1935).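 Further: BJ fibroblasts immortalized with TERT plus LT and ST oncogenes.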 The format is functional. Particulars: Homo sapiens.
Test [14] has as its target T1, Beta-galactosidase (Escherichia coli, UniProt Q8VNN2). In words: PubChem AID 485352. The format is functional.
The target of test [15] is T2, Type-1 angiotensin II receptor (Homo sapiens, UniProt P30556).
T2 sequence (P30556 whole entry): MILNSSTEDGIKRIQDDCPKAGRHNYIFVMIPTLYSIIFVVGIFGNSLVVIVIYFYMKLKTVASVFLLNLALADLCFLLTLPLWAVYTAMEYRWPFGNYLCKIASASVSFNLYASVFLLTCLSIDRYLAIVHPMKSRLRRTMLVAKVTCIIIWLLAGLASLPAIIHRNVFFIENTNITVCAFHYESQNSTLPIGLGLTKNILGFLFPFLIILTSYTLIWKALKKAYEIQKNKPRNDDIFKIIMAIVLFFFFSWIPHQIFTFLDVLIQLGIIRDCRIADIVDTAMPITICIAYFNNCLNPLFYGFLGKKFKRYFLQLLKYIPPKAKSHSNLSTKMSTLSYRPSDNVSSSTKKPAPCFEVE
In words: AT1 receptor antagonists, dose response, selectivity assay for APJ receptor antagonist project, cell-based, uHTS hits (AID 463214).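 Further: antagonist potency against angiotensin II stimulated AT1 response.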 Format: functional.

Test [16] addresses T1, Beta-galactosidase. In words: Dose response counterscreen for EBI2 assay utilizing the enzyme, b-galactosidase. The format is functional. On the technique in general: A counterscreen serves to expose hits that act by an unwanted route or on another target.
Test [17] is described as follows: inhibitors of intracellular T. cruzi replication, confirmation, NIH3T3 host cells, beta-gal luminescence (AID 2044).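 Further: intracellular parasites grown in NIH/3T3 mouse fibroblasts as host cells; luminescent beta-galactosidase reporter signal from transgenic T. cruzi replicating inside host cells; inhibitors lower the luminescence signal.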 Format: functional, cell-based.
Test [18] in a line: cytotoxicity toward NIH3T3 fibroblasts, dose response, counter-screen, cell-based, ATP luminescence, mouse fibroblasts (AID 2010).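 Further: cells exposed to compound for about 90 hours before reading.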 The format is functional.
Test [19] concerns CHO. In words: cytotoxicity in TLR9-MyD88 CHO cells, dose response, cytotoxicity control for TLR9-MyD88 binding inhibitor project, cell-based, luminescence (AID 588339).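 Further: CHO cells stably coexpressing TLR9 and MyD88 fusions from primary screen; compound exposure lasted 48 hours before viability readout.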 The format is functional, hamster. Particulars: Cricetulus griseus.
A short description of test [20]: cytotoxicity in HEK-293T cells, dose response, cytotoxicity control for BCR NF-kB inhibitor project, luminescence, B-cell screen hits (AID 489021).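 Further: HEK-293T cells carrying an NF-kB luciferase reporter; cells exposed to compound for about 14 hours before viability readout.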 Format: functional, cell-based.
Test [21] is described as follows: NIH-3T3 fibroblast cytotoxicity, dose response, cytotoxicity control, cell-based, fluorescence, Alamar Blue, secondary assay (AID 2327).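 Further: NIH-3T3 mouse fibroblasts cultured with fluconazole at 8 µg/mL.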 The format is functional. (Alamar Blue is a resazurin reagent that responds to reducing activity.)
Test [22] has as its target ATP-dependent molecular chaperone HSP82 (Candida albicans (strain WO-1) (Yeast), UniProt C4YTQ8). In words: loss of DOC-induced GRE-beta-galactosidase reporter signal, dose response, Hsp90 inhibitor project, S. cerevisiae, luminescence (AID 2400).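 Further: beta-galactosidase luminescence from glucocorticoid response element reporter as proxy for Hsp90 function; inhibitor potency where signal loss means Hsp90 inhibition.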 The format is functional, cell-based.
Test [23] deals with T3, Serine/threonine-protein phosphatase (Candida dubliniensis (strain CD36 / CBS 7987 / NCPF 3949 / NRRLY-17841) (Yeast), UniProt B9W6M3).
T3 sequence (B9W6M3 whole entry): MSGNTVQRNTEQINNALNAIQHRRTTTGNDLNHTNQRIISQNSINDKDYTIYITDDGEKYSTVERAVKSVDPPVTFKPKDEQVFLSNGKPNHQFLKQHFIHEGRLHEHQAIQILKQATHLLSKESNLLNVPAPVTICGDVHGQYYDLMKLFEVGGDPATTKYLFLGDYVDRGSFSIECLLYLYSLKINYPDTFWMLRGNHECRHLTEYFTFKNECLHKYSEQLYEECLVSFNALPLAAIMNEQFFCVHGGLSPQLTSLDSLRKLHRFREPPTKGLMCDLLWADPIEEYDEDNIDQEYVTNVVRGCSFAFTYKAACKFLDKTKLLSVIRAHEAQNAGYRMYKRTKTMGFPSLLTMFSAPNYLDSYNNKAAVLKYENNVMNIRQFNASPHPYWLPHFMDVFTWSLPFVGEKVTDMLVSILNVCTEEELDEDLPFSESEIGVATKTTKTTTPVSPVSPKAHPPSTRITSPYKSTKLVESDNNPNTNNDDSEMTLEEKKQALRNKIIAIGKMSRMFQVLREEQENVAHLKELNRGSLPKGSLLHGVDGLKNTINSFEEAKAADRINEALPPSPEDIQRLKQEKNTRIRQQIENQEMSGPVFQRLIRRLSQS
In words: calcineurin pathway inhibitors in yeast reporter, dose response, S. cerevisiae, CDRE-lacZ, luminescence, secondary (AID 2388).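 Further: yeast reporter cells carrying a calcineurin-responsive lacZ construct stimulated with calcium chloride; luminescent beta-galactosidase reporter signal in whole cells rather than isolated phosphatase activity; potency for inhibition where a drop in reporter signal means calcineurin blockade.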 Format: functional, cell-based.

Test [24] can be described thus: C. albicans growth with fluconazole, confirmation, fluorescence, retest (AID 2467). Format: functional, cell-based.
The nature of test [25]: Luminescence Cell-Based Dose Confirmation HTS to Identify Inhibitors of Platelet Dense Granule Release. [Related pubchem assays: 1663 (Primary HTS), 1678 (Summary of Project)]. Format: functional.
The target of test [26] is Luciferin 4-monooxygenase (Photinus pyralis, UniProt P08659). Nature of the test: firefly luciferase enzyme inhibitors, dose response, biochemical, luminescence (AID 1891).
A short description of test [27]: A549 cell cytotoxicity, dose response, cytotoxicity control, plate reader, cherry-pick, antagonist series (AID 743412). The format is functional, cell-based.
Test [28] is described as follows: HEK293 cell cytotoxicity, dose response, cytotoxicity control, plate reader, cherry-picked samples (AID 743446). The format is functional, cell-based.
Test [29] is described as follows: HepG2 cell cytotoxicity, dose response, cytotoxicity control, plate reader, cherry-pick, antagonist series (AID 743416). The format is functional, cell-based.
Test [30] in a line: LGR2 antagonists, dose response, cell-based, HEK293, CRE-luciferase reporter, cherry pick, set 2 (AID 743343).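 Further: transfected cells were stimulated with diluted bursicon conditioned medium after compound addition.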 The format is functional.
Test [31] in a line: MC4R antagonists, dose response, counter-screen for LGR2 antagonist project, cell-based, plate reader, cherry pick (AID 743444).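 Further: transfected HEK 293 cells stimulated with alpha-MSH peptide; potency of inhibitors of the alpha-MSH evoked signal.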 Format: functional.
A short description of test [32]: luciferase reporter signal reduction – luminescence, H4-C neuroglioblastoma cells, dose response (AID 2458).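 Further: H4 neuroglioblastoma cells stably carrying a luciferase reporter gene fusion.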 Format: functional, cell-based.
Test [33] can be described thus: inhibitors of firefly luciferase expression or activity, dose response, H4 neuroglioma cells, luminescence (AID 1990). Format: functional, cell-based.
Test [34] in a line: inhibitors of SNCA 5'UTR-driven translation, confirmation, luminescence, H4 neuroglioblastoma cells, dose confirmation (AID 2454).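 Further: H4 neuroglioblastoma cells carrying an alpha-synuclein 5'UTR luciferase reporter; potency for inhibition of the luciferase signal.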 The format is functional, cell-based.
A short description of test [35]: inhibitors of SNCA 5'UTR-driven reporter translation, confirmation, H4 neuroglioma cells, luminescence (AID 1988). The format is functional, cell-based.
Test [36] can be described thus: cells. The format is functional, cell-based.
Test [37] can be described thus: Luminescence Cell-Based Dose Response HTS to Identify Inhibitors of 5'UTR Stem-Loop Driven Prion Protein mRNA Translation in H4 Neuroglioblastoma Cells. [Related pubchem assays: 1827 (Project Summary), 1813 (Primary HTS)]. Format: functional.

T1 sequence (Q8VNN2 whole entry): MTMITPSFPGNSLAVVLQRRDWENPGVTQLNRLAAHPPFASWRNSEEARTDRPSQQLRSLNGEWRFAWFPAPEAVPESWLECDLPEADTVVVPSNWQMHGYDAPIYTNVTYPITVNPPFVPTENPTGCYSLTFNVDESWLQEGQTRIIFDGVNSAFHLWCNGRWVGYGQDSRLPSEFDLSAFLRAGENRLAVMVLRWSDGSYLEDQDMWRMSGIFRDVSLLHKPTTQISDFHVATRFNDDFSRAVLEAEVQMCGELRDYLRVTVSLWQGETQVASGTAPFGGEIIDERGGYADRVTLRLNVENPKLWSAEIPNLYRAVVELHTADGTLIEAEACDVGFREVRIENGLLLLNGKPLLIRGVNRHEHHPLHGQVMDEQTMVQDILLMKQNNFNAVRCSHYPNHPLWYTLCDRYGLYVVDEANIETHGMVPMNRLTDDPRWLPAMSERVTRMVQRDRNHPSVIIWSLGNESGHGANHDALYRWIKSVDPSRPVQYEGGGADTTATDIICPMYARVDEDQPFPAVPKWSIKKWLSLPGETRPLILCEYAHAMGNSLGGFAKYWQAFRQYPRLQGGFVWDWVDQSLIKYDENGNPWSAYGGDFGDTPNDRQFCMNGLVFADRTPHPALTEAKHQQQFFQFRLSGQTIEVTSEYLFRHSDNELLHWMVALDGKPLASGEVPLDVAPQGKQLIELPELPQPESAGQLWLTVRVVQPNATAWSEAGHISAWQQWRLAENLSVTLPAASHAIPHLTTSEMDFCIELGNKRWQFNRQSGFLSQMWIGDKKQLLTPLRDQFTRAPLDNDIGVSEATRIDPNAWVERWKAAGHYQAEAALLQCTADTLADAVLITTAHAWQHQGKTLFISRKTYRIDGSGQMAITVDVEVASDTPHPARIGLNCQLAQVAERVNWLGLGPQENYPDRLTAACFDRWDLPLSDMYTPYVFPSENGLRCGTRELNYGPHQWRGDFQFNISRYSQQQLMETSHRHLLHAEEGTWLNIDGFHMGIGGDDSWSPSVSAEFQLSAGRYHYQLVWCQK
Peroxisome proliferator-activated receptor gamma/Nuclear receptor coactivator 2, sequence (P37231 whole entry): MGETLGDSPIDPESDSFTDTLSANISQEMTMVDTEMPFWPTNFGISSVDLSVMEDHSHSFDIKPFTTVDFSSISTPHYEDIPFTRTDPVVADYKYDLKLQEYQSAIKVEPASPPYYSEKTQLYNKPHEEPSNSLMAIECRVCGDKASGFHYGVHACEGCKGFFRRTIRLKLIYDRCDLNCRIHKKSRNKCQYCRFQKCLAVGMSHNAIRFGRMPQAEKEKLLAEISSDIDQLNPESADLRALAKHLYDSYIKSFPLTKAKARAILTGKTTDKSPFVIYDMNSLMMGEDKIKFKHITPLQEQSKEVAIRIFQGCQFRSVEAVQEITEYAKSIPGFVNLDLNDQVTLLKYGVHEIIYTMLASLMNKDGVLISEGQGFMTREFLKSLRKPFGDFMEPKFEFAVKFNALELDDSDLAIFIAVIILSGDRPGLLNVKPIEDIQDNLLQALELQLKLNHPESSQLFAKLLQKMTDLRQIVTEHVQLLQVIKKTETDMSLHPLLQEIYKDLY
Peroxisome proliferator-activated receptor gamma/Nuclear receptor coactivator 2, sequence (Q15596 whole entry, further chain): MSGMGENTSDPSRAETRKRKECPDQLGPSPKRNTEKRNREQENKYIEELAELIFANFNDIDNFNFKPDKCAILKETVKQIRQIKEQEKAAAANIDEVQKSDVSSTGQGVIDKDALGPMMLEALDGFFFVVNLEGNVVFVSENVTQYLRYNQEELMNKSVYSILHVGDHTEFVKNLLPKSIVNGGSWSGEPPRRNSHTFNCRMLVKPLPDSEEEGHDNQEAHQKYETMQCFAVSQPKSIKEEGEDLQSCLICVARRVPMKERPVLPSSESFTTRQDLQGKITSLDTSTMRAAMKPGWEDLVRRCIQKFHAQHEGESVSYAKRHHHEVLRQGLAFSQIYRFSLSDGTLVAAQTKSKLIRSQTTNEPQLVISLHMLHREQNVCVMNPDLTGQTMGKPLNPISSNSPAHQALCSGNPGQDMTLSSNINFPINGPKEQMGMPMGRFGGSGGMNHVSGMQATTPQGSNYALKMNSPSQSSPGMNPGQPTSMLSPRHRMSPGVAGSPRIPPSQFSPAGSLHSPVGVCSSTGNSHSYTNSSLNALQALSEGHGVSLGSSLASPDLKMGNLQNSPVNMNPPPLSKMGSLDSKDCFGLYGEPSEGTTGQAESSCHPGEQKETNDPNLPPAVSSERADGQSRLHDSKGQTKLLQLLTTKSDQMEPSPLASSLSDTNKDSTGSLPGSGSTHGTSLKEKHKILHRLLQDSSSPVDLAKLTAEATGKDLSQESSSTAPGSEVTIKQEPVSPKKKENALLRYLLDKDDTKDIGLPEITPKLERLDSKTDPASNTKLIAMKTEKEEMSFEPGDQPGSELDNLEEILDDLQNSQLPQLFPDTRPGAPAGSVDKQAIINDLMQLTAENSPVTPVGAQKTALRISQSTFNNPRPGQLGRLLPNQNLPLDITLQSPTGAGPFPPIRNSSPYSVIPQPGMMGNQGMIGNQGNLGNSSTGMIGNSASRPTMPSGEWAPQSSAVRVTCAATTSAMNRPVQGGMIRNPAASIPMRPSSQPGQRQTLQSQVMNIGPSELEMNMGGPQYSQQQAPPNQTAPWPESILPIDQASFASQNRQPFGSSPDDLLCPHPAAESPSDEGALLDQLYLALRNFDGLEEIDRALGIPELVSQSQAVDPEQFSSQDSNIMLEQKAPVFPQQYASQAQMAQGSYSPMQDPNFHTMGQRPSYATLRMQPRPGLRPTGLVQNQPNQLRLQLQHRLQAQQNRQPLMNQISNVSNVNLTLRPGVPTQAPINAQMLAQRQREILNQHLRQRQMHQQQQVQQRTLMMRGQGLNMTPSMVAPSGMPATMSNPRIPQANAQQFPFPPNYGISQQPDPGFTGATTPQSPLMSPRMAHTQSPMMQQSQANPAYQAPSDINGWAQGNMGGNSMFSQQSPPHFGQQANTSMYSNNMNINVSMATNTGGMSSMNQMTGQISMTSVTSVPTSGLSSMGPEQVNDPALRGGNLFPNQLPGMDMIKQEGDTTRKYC
Peroxisome proliferator-activated receptor gamma/Nuclear receptor coactivator 1, sequence (P37231 whole entry): as the sequence (P37231 whole entry) above
Peroxisome proliferator-activated receptor gamma/Nuclear receptor coactivator 1, sequence (Q15788 whole entry, further chain): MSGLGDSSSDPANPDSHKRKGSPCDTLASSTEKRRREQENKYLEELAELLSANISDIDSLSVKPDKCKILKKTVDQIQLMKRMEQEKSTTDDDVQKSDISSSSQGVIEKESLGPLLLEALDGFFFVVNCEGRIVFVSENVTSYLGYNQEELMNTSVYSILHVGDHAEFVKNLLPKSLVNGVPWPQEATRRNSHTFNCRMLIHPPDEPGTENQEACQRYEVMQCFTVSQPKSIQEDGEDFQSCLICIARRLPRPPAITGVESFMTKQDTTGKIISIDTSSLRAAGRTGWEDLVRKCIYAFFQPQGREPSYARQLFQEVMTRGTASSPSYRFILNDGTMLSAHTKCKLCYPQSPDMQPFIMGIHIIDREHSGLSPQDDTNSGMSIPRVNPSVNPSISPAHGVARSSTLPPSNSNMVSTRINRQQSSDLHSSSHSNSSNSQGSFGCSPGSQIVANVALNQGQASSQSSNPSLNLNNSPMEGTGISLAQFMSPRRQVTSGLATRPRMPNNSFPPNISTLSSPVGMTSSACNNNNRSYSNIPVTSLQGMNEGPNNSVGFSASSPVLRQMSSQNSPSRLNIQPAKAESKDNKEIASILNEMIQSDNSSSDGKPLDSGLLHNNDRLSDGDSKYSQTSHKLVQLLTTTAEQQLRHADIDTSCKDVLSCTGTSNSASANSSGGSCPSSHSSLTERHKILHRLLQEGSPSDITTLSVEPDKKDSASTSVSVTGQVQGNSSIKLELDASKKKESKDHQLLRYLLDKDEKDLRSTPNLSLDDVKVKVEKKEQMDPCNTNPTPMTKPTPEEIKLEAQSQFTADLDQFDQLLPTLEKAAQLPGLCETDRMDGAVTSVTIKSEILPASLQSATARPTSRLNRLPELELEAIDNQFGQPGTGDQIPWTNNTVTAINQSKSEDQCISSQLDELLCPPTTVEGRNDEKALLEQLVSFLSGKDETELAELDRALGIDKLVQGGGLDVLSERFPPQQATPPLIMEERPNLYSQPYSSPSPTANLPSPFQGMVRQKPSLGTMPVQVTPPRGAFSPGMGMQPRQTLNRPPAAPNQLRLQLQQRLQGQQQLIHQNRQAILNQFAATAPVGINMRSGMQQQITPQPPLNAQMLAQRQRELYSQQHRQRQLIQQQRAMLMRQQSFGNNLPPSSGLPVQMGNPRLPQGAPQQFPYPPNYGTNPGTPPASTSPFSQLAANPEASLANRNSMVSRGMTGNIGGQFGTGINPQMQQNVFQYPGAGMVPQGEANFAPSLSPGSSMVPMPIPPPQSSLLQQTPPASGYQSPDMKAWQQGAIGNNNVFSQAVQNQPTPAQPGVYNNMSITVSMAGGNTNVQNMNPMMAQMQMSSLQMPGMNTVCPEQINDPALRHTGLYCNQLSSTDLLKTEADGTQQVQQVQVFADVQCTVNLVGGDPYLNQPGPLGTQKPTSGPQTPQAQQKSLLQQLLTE

Broadly, the AC50 is the midpoint of the concentration-response curve, whichever way the signal moves. With `Cn1cccc1/C=C1\CC(C(C)(C)C)C/C(=C\c2cccn2C)C1=O` (stereo not given), the AC50 in test [1] is 160 µM (active).
Broadly, the EC50 is the concentration giving half of the maximal effect. For `Cc1ccc(S(=O)(=O)c2nc(-c3cccs3)oc2SCC(N)=O)cc1`, the EC50 in test [2] is 7.72 µM (active); in test [3] it was 8.44 µM (active); in test [4] it was > 79.4 µM (not active).
The GI50 is the concentration at which growth is held to half of that of the control. Turning to `NC1(C(=O)O)CCCC1` [CYCLOLEUCINE], the GI50 in [5], in test [6] and in [7] was > 625 µM (inactive) in each case.
For the compound `CC[C@](C)(O)C(=O)O[C@H]1C(=O)O[C@@H]2C[C@H]3C(C)=C[C@H](O)[C@@H](O)[C@]3(C)[C@H]3[C@@]4(O)OC[C@]32[C@@H]1[C@@H](C)[C@H]4O`, the GI50 in test [5] was 88.5 µM (inactive); in test [6], 7.19 µM (inactive); in test [7], 45.3 µM (inactive).
As for `O=C(NCc1cccnc1)c1ccc(NC(=O)c2ccc(Br)cc2)cc1`, in test [8], the AC50 was 1.36 µM (active). Besides, the EC50 in test [9] is 1.3 µM (inconclusive); in test [10], 0.169 µM (active); in test [11], > 150 µM (not active); in [12] it was > 150 µM (not active); in test [13], 14 µM (active).
Broadly, the IC50 is the concentration at which inhibition is half-maximal. `Cc1ccc(C(=O)COC(=O)CN2C(=O)C3CC=CCC3C2=O)cc1[N+](=O)[O-]` (stereo not given): the EC50 in [14] is > 40 µM (inactive). In addition, the half-maximal inhibitory concentration (IC50) in [15] is listed as 33.6 µM (not active).
Regarding `CN=C(S)N1N=C(c2ccc(Br)cc2)CC1c1ccc(Br)cc1` (stereo not given), the 50% effective concentration (EC50) in test [2] is > 2.94 µM (active); in [17] it was 1.64 µM (active); in test [3], > 8.82 µM (not active); in test [18], > 60 µM (not active); in test [4], > 26.5 µM (not active). For the same compound, in test [16], the IC50 is > 80 µM (inactive).
With `COC(=O)c1c(-c2ccc(N(C)C)cc2)sc2ccc(OC)cc12`, in test [8], the AC50 was 3.3 µM (active). The IC50 was > 49.7 µM (inactive) in test [19] and > 80 µM (inactive) in test [20].
As to `C=CCOC(=O)c1sc(NC(=O)c2ccco2)nc1C`, the EC50 was > 150 µM (inactive) in test [21], 29.7 µM (active) in [22], > 180 µM (inactive) in test [23] and 0.544 µM (active) in test [24].
In the case of `CCOc1ccc(N/C=C/C(=O)c2ccccc2)cc1`, the EC50 in test [25] was 2 µM (active); in test [26] it was 0.453 µM (active). For the same compound, in [1], the AC50 is 3.62 µM (active).
`Cc1c2cnccc2c(C)c2c1c1ccccc1n2CCCCCCNCc1ccccc1`: the GI50 in [5] was 0.246 µM (active); in test [6] it was 1.02 µM (active); in test [7] it was 0.269 µM (active).
Turning to `Cc1ccc(-c2cc3c(nn2)-c2ccccc2C3=O)cc1`, the AC50 in test [27] was 25.5 µM (active); in [28] it was 18.3 µM (active); in test [29], 35.8 µM (active); in test [30] it was 1.11 µM (active); in test [31], 1.65 µM (active). Further, the EC50 in [14] is > 40 µM (inactive). Further, the IC50 in test [15] is 2.89 µM (active).
In the case of `COc1ccc(S(=O)(=O)N2c3cc(Cl)ccc3Oc3nc4ccccc4nc32)cc1`, the EC50 in [32] was 2.41 µM (active); in [33] it was 3.64 µM (inconclusive); in test [34], > 12 µM (not active); in test [35], < 0.1 µM (active); in test [36], > 12 µM (not active); in [9], 5.06 µM (active). Besides, the EC50 in [10] is < 0.104 µM (active); in test [11], 7.55 µM (inconclusive); in test [12], 6.91 µM (inconclusive); in test [37], 7.56 µM (active); in test [13], 3.81 µM (active).
